Values after ≈ are worked out from the molar mass of the structure shown. Read-outs that look alike come from different tables or passages of the source.
Experiments:
A-431 cells = assay: Inhibition of A-431 cell proliferation; assay type: cell-based; settings: Homo sapiens, 96 h, incubated 4 days
Experimental: (§1) Human cutaneous squamous cell carcinoma cell A-431 (ATCC, CRL-1555) and actinic keratosis patient-derived cell HT 297.T (ATCC, CRL-7782) proliferation assays were used to detect the inhibitory effect of small molecular compounds on cell proliferation.
(§2) A-431 cells and HT 297.T cells were cultured in DMEM medium containing 10% fetal bovine serum and grown at 37° C. in a 5% CO2 incubator. Cells on logarithmic phase were seeded into a 96-well cell culture plate at 1000 cells/well, 100 μL per well, and then cultured overnight at 37° C. in a 5% CO2 incubator. The next day, 100 μL of gradient-diluted 2× test compound solution was added to each well, with DMSO serving as a positive control, and 10 μM staurosporine (Aladdin, S102392) was set as a negative control group. After the addition of the compounds, the culture plate was incubated for another 4 days at 37° C. in a 5% CO2 incubator. After incubation, the Steady-Glo® luciferase assay system (Promega, G9243) was used according to the supplier's instructions to measure the fluorescence signal value on the Envision 2104 Multilabel Reader. The inhibition rate was calculated by the following formula, then the curve was plotted with the Log value of the inhibitor concentration as the X-axis and the inhibition rate as the Y-axis, and the IC50 was calculated using Graphpad 8.0.
(§3) Inhibition %=(positive control group signal−test well signal)/(positive control group signal−negative control group signal)*100

[1] = Pharmacokinetic test in mice; assay type: in vivo; settings: mouse, plasma
Experimental: For the pharmacokinetic test in mice, 3 male ICR mice, 20 to 25 g, were used, fasted overnight, and administered by tail vein injection (1 mg/kg or 5 mg/kg). Blood was collected before the administration, and at 15 min, 30 min, 1 hour, 2 hours, 4 hours, 8 hours, and 24 hours after the administration. Another 3 mice were taken and administered by oral gavage (5 mg/kg), and blood was collected before the administration, and at 15 min, 30 min, 1 hour, 2 hours, 4 hours, 8 hours, and 24 hours after the administration. Blood samples were centrifuged at 6800 g at 2 to 8° C. for 6 min, and plasma was collected and stored at −80° C. The plasma at each time point was taken and added with an acetonitrile solution containing internal standard in 3 to 5 times the amount. The mixture was vortexed and mixed for 1 min, and centrifuged at 13,000 rpm at 4° C. for 10 min. The supernatant was collected, added with water in 3 times the amount, and mixed. An appropriate amount of the mixture was taken for LC-MS/MS analysis. The main pharmacokinetic parameters were analyzed using WinNonlin 7.0 software with non-compartmental model.

[2] = Human liver microsome stability test; assay type: in vitro ADME; settings: human liver microsomes (Corning), NADPH, 37° C.
Experimental: The human liver microsome stability test was performed by incubating the compound and human liver microsomes in vitro. First, the compound to be tested was prepared as a 10 mM stock solution in DMSO solvent, and then the compound was diluted to 0.5 mM with acetonitrile. Human liver microsomes (Corning) were diluted with PBS into a microsome/buffer solution, and the solution was used to dilute 0.5 mM compound into a working solution, in which the concentration of the compound was 1.5 μM, and the concentration of human liver microsomes was 0.75 mg/mL. A deep-well plate was taken, 30 μL of the working solution was added per well, and then 15 μL of pre-heated 6 mM NADPH solution was added thereto to initiate a reaction, and the reaction was incubated at 37° C. At 0 min, 5 min, 15 min, 30 min, and 45 min of the incubation, 135 μL of acetonitrile was added to the corresponding wells to terminate the reaction. After the reaction was terminated with acetonitrile at the last time point of 45 min, the deep-well plate was vortexed and shaken for 10 min (600 rpm), and then centrifuged for 15 min. After centrifugation, the supernatant was collected, and added with purified water in a ratio of 1:1 to perform LC-MS/MS detection. A ratio of a peak area of compound to a peak area of internal standard at each time point was obtained, and the peak area ratios of the compound at 5 min, 15 min, 30 min, and 45 min were compared with the peak area ratio at 0 min to calculate the remaining percentage of the compound at each time point. T1/2 was calculated by using Graphpad 5 software.

tubulin monomer = assay: Inhibition test of tubulin monomer polymerization (Tubulin polymerization assay kit); assay type: biochemical; settings: maximum fluorescence signal of polymerization curve; 5 μL of 12.5 μM compound solution; 37° C.; higher value = lower inhibitory efficiency
Experimental: Tubulin polymerization assay kit (cytoskeleton, Cat. #BK011P) was used to conduct the compound inhibition test of tubulin monomer polymerization.
Before the test, the 96-well plate (Corning Costar, Cat. #3686) supplied with the kit was first placed in a microplate reader (MD, SpectraMax M5) and heated to 37° C., maintained for 10 minutes. The 96-well plate was then removed, and 5 μL of 12.5 μM compound solution or blank solution was added thereto. The 96-well plate was then placed back into the microplate reader and incubated at 37° C. for 1 minute to heat the compound solution to 37° C. The 96-well plate was removed and 50 μL of reaction mixture prepared according to the supplier's instructions was quickly added to each well, completing the sample addition within 1 minute to avoid the formation of bubbles. The 96-well plate was then immediately placed back into the microplate reader, shaken for 5 seconds, and using the Kinetic mode, continuous detection was carried out at 37° C. for 30 to 60 minutes under the conditions of excitation light at 360 nm and emission light at 420 nm, with detection every 30 seconds. Taking the detection time as the X-axis and the fluorescence signal value as the Y-axis, the tubulin monomer polymerization curve was obtained. As shown in FIG. 1 and Table 1, the larger the Vmax value and the higher the maximum fluorescence signal value of the polymerization curve, the lower the inhibitory efficiency of the compound.

HT 297.T cells = assay: Inhibition of HT 297.T cell proliferation; assay type: cell-based; settings: Homo sapiens, 96 h, incubated 4 days
Experimental: as §1, §2, §3

[3] = Thermodynamic solubility test; assay type: physicochemical; settings: thermodynamic from solid
Experimental: Phosphate buffer saline (PBS) with a pH of 7.4, FeSSIF solution with a pH of 6.5, and FaSSGF solution with a pH of 1.6 were prepared. The compound was accurately weighed and added to prepared phosphate buffer saline with a pH of 7.4, FeSSIF solution with a pH of 6.5, and FaSSGF solution with a pH of 1.6 to prepare into a solution with a concentration of 4 mg/mL. The solution was shaken at a speed of 1000 rpm for 1 hour, and then incubated overnight at room temperature. The incubated solution was centrifuged at 12,000 rpm for 10 minutes to remove undissolved particles, and the supernatant was transferred to a new centrifuge tube. After the supernatant was appropriately diluted, an acetonitrile solution containing internal standard was added, and a standard curve prepared with the same matrix was used for quantification.

[4] = male ICR mice, intravenous injection 5 mg/kg
[5] = male, ICR, mice, oral gavage 5 mg/kg
[6] = FeSSIF solution, FeSSIF pH 6.5, incubated overnight at room temperature, read-out: Solubility FeSSIF (pH 6.5)
[7] = phosphate buffer saline (PBS), aqueous buffer, PBS pH 7.4, incubated overnight at room temperature, read-out: Solubility PBS (pH 7.4)
[8] = male ICR mice, intravenous injection 1 mg/kg

Structure (SMILES) | IC50 (A-431 cells) | AUC(0-t) [1, 4] | clearance [1, 4] | also measured
C[C@@H]1COCCN1CCOc1ccc(-c2ccc(CC(=O)NCc3ccccc3F)nc2)c(F)c1 [Compound I-31, (R)-2-(5-(2-fluoro-4-(2-(3-methylmorpholino)ethoxy)phenyl)pyridin-2-yl)-N-(2-fluorobenzyl)acetamide] | 0.0109 µM |  |  | 
Cc1cc(OCCN2C[C@H]3COC[C@H]3C2)cc(C)c1-c1ccc(CC(=O)NCc2ccccc2)nc1 [Compound I-29, N-benzyl-2-(5-(2,6-dimethyl-4-(2-((3aR,6aS)-tetrahydro-1H-furo[3,4-c]pyrrol-5(3H)-yl)ethoxy)phenyl)pyridin-2-yl)acetamide] | 0.0451 µM |  |  | 
Cc1cc(OCCN2CC3(COC3)C2)ccc1-c1ccc(CC(=O)NCc2ccccc2)nc1 [Compound I-5, 2-(5-(4-(2-(2-oxa-6-azaspiro[3.3]heptan-6-yl)ethoxy)-2-methylphenyl)pyridin-2-yl)-N-benzylacetamide] | 0.0163 µM | 2.63 µg·h/mL | 1.96 L/h/kg | 
O=C(Cc1ccc(-c2ccc(OCCN3CC4(C3)CS(=O)(=O)C4)cc2)cn1)NCc1ccccc1 [Compound I-18, N-benzyl-2-(5-(4-(2-(2,2-dioxido-2-thia-6-azaspiro[3.3]heptan-6-yl)ethoxy)phenyl)pyridin-2-yl)acetamide] | 0.0223 µM |  |  | 
O=C(Cc1ccc(-c2ccc(OCCN3C[C@H]4COC[C@H]4C3)cc2Cl)cn1)NCc1ccccc1 [Compound I-30, N-benzyl-2-(5-(2-chloro-4-(2-((3aR,6aS)-tetrahydro-1H-furo[3,4-c]pyrrol-5(3H)-yl)ethoxy)phenyl)pyridin-2-yl)acetamide] | 0.00912 µM | 0.852 µg·h/mL | 5.83 L/h/kg | AUC(0-t) [1, 5]: 0.508 µg·h/mL; Cmax [1, 5]: 0.364 µg/mL; half-life at 1 μM [2]: 10.7 min
C[C@@H]1COCCN1CCOc1ccc(-c2ccc(CC(=O)NCc3ccccc3)nc2)c(F)c1 [Compound I-24B, (R)—N-benzyl-2-(5-(2-fluoro-4-(2-(3-methylmorpholino)ethoxy)phenyl)pyridin-2-yl)acetamide] | 0.00647 µM | 2.78 µg·h/mL | 1.84 L/h/kg | Maximum signal value (tubulin monomer): 266; IC50 (HT 297.T cells): 0.00851 µM; solubility [3, 6]: 0.0698 mg/mL (≈ 150 µM); solubility [3, 7]: 0.0113 mg/mL (≈ 24.4 µM); AUC(0-t) [1, 5]: 1.42 µg·h/mL; Cmax [1, 5]: 1.23 µg/mL; half-life at 1 μM [2]: 13.9 min
O=C(Cc1ccc(-c2ccc(OCCN3CC4(COC4)C3)cc2F)cn1)NCc1ccccc1 [Compound I-4, 2-(5-(4-(2-(2-oxa-6-azaspiro[3.3]heptan-6-yl)ethoxy)-2-fluorophenyl)pyridin-2-yl)-N-benzylacetamide] | 0.00867 µM |  |  | IC50 (HT 297.T cells): 0.0219 µM; half-life at 1 μM [2]: 47.5 min
C[C@H]1COCCN1CCOc1ccc(-c2ccc(CC(=O)NCc3ccccc3F)nc2)c(F)c1 [Compound I-32, (S)-2-(5-(2-fluoro-4-(2-(3-methylmorpholino)ethoxy)phenyl)pyridin-2-yl)-N-(2-fluorobenzyl)acetamide] | 0.00922 µM |  |  | 
O=C(Cc1ccc(-c2ccc(OCCN3C[C@H]4COC[C@H]4C3)cc2Cl)cn1)NCc1ccccc1F [Compound I-34, 2-(5-(2-chloro-4-(2-((3aR,6aS)-tetrahydro-1H-furo[3,4-c]pyrrol-5(3H)-yl)ethoxy)phenyl)pyridin-2-yl)-N-(2-fluorobenzyl)acetamide] | 0.0149 µM |  |  | 
O=C(Cc1ccc(-c2ccc(OCCN3CCS(=O)(=O)CC3)cc2)cn1)NCc1ccccc1 [Compound I-3, N-benzyl-2-(5-(4-(2-(1,1-dioxidothiomorpholino)ethoxy)phenyl)pyridin-2-yl)acetamide] | 0.0143 µM |  |  | 
C[C@H]1COCCN1CCOc1ccc(-c2ccc(CC(=O)NCc3ccccc3)nc2)c(F)c1 [Compound I-24A, (S)—N-benzyl-2-(5-(2-fluoro-4-(2-(3-methylmorpholino)ethoxy)phenyl)pyridin-2-yl)acetamide] | 0.00674 µM | 2.52 µg·h/mL | 1.99 L/h/kg | IC50 (HT 297.T cells): 0.00813 µM; AUC(0-t) [1, 5]: 1.09 µg·h/mL; Cmax [1, 5]: 1.19 µg/mL
Cc1cc(OCCN2C[C@H]3COC[C@H]3C2)ccc1-c1ccc(CC(=O)NCc2ccccc2F)nc1 [Compound I-33, N-(2-fluorobenzyl)-2-(5-(2-methyl-4-(2-((3aR,6aS)-tetrahydro-1H-furo[3,4-c]pyrrol-5(3H)-yl)ethoxy)phenyl)pyridin-2-yl)acetamide] | 0.0494 µM |  |  | 
N#Cc1cc(OCCN2CCOCC2)ccc1-c1ccc(CC(=O)NCc2ccccc2)nc1 [Compound I-27, N-benzyl-2-(5-(2-cyano-4-(2-morpholinoethoxy)phenyl)pyridin-2-yl)acetamide] | 0.0031 µM |  |  | Maximum signal value (tubulin monomer): 0; solubility [3, 6]: 0.833 mg/mL (≈ 1830 µM); solubility [3, 7]: 0.0857 mg/mL (≈ 188 µM)
O=C(Cc1ccc(-c2ccc(OCCNC3CN(C(=O)CC4CC4)C3)cc2)cn1)NCc1ccccc1 [Compound I-26, N-benzyl-2-(5-(4-(2-((1-(2-cyclopropylacetyl)azetidin-3-yl)amino)ethoxy)phenyl)pyridin-2-yl)acetamide] | 0.0137 µM |  |  | Maximum signal value (tubulin monomer): 408; solubility [3, 6]: 0.48 mg/mL (≈ 962 µM); solubility [3, 7]: 0.0224 mg/mL (≈ 45 µM); half-life at 1 μM [2]: 42.8 min
O=C(Cc1ccc(-c2ccc(OCCN3CCOCC3)cc2)cn1)NCc1ccccc1 [Control compound I, Tirbanibulin, reference compound] |  | 5.25 µg·h/mL | 0.95 L/h/kg | 
O=C(Cc1ccc(-c2ccc(OCCN3C[C@H]4COC[C@H]4C3)cc2F)cn1)NCc1ccccc1 [Compound I-1, N-benzyl-2-(5-(2-fluoro-4-(2-((3aR,6aS)-tetrahydro-1H-furo[3,4-c]pyrrol-5(3H)-yl)ethoxy)phenyl)pyridin-2-yl)acetamide] | 0.0116 µM |  |  | AUC(0-t) [1, 8]: 0.299 µg·h/mL; clearance [1, 8]: 2.86 L/h/kg
